Assay results: the supplement of paper PMC10307832

Legend:
Experiment in all cases: relative viability (nuclei count vs DMSO), 5 days (fraction); higher = more cells survive
[1] = compound: CC(C)C[C@H](NC(=O)[C@H](Cc1ccccc1)NC(=O)c1cnccn1)B(O)O [Bortezomib]
In short: (§1)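 Lung cancer cell lines received five library-drug doses (not always all listed) spaced by √10, pinned on vehicle-anchored 1536-well plates after an overnight stay at 37 °C. Five days later, with no medium change, nuclei were Hoechst-stained, imaged at 4× and counted with MetaXpress. Viability is treated-well nuclei relative to vehicle-well nuclei, as a median across plates. Passing plates had control CV below 25% and at least one doubling.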

[2] = compound: CC1=CC(=NN1)NC2=CC(=NC(=N2)/C=C/C3=CC=CC=C3)N4CCN(CC4)C
In short: as §1

[3] = compound: COC1=CC(c2cc3ccccc3[nH]2)=N/C1=C\c1[nH]c(C)cc1C [Obatoclax]
In short: as §1

Row | Cell Line | relative viability ([1]; 0.0002 µM) | relative viability ([1]; 0.000632 µM) | relative viability ([1]; 0.002 µM) | relative viability ([1]; 0.002 µM, anchor plate) | relative viability ([1]; 0.006325 µM) | relative viability ([1]; 0.02 µM) | relative viability ([2]; 0.08 µM) | relative viability ([2]; 0.253 µM) | relative viability ([2]; 0.8 µM) | relative viability ([2]; 2.53 µM) | relative viability ([2]; 8 µM) | relative viability ([3]; 0.01 µM) | relative viability ([3]; 0.03162 µM) | relative viability ([3]; 0.1 µM) | relative viability ([3]; 0.3162 µM) | relative viability ([3]; 1 µM)
1 | NCI-H596 | 0.918 | 0.894 | 0.718 | 1.05 | 0.241 | 0.211 | 1 | 0.998 | 0.879 | 0.614 | 0.256 | 1.01 | 0.858 | 0.843 | 0.691 | 0.584
2 | LU99A | – | 0.737 | 1.03 | 1.14 | 0.797 | 0.303 | 1.02 | 0.883 | 0.786 | 0.426 | 0.269 | 0.925 | 0.963 | 0.622 | 0.922 | 0.364
3 | IA-LM | 0.871 | 0.991 | 0.833 | 0.817 | 0.0932 | 0.0256 | 0.852 | 1.07 | 1.1 | 0.866 | 0.231 | 0.93 | 0.935 | 0.854 | 0.625 | 0.203
4 | NCI-H2009 | 1.01 | 0.977 | 1.07 | 0.971 | 0.0869 | 0.0749 | 0.995 | 0.95 | 0.997 | 0.646 | 0.243 | 0.958 | 1.02 | 0.85 | 0.626 | 0.301
